Patent US6046190A, “Hydroxyethylamino sulphonamides useful as retroviral protease inhibitors” (G.D. Searle & Co., priority 1996, dated 2000)
Where two headings read alike, the source gives them in different places.

Assays:
[1] = Intrinsic toxicity of test compound in uninfected CEM cells (MTT); details: human
Text: (§1) Methods, 20, 309-321 (1988).
(§2) [table 42: the next 8 blocks are its lines as printed, fixed-width]

HIV-1 in CEM cells = assay: HIV inhibition assay of acutely infected CEM cells (tetrazolium/MTT colorimetric), antiviral efficacy; format: cell-based; details: Human immunodeficiency virus 1, CCRF-CEM, 168 h
Text: as §1, §2

HIV protease = target: T1, HIV protease (Human immunodeficiency virus type 1 group M subtype B, UniProt P04585); assay: biochemical; format: biochemical
T1 construct: HIV protease is diluted in the assay buffer to a final enzyme concentration of 12.3 nanomolar, based on a molecular weight of 10,780
Protocol: The enzyme method is described below. […] The positive control is MVT-101 (Miller, M. et al, Science, 246, 1149 (1989)]. The assay conditions are as follows:
20 mM sodium phosphate, pH 6.4
The above described substrate is dissolved in DMSO, then diluted 10 fold in assay buffer. Final substrate concentration in the assay is 80 μM.
The final concentration of DMSO is 14% and the final concentration of glycerol is 18%. The test compound is dissolved in DMSO and diluted in DMSO to 10× the test concentration; 10 μl of the enzyme preparation is added, the materials mixed and then the mixture is incubated at ambient temperature for 15 minutes. The enzyme reaction is initiated by the addition of 40μl of substrate. The increase in fluorescence is monitored at 4 time points (0, 8, 16 and 24 minutes) at ambient temperature. Each assay is carried out in duplicate wells.

[2] = Table 21, CEM cells, 1000 TCID50 HIV-1, 7 days, read-out: EC50
[3] = Table 21, above-described enzyme assay
[4] = Table 19B, calculated IC50, enzyme 12.3 nanomolar, substrate 80 μM, pH 6.4
[5] = Table 20, calculated IC50, enzyme 12.3 nanomolar, substrate 80 μM, pH 6.4

Compound	EC50 (HIV-1 in CEM cells)	EC50 (HIV-1 in CEM cells; [2])	also measured
CC(C)CCN(C[C@@H](O)[C@H](Cc1ccccc1)NC(=O)OCc1ccccc1)S(=O)(=O)c1ccccc1 [Example 1]	0.055 µM	–	CC50 at 168 h [1]: 0.027 µM
CC(C)CCN(C[C@@H](O)[C@H](Cc1ccccc1)NC(=O)[C@H](CC(N)=O)NC(=O)c1ccc2ccccc2n1)S(=O)(=O)c1ccccc1 [Example 2]	–	0.005 µM	CC50 at 168 h [1]: 0.203 µM
COc1ccc(COC(=O)NC[C@@H](C)C(=O)N[C@@H](Cc2ccccc2)[C@H](O)CN(CCC(C)C)S(=O)(=O)c2ccccc2)cc1 [Example 3]	0.011 µM	–	CC50 at 168 h [1]: 0.78 µM
CC(C)CCN(C[C@@H](O)[C@H](Cc1ccccc1)NC(=O)[C@H](CC(N)=O)NC(=O)c1ccc2ccccc2n1)S(C)(=O)=O [Example 4]	0.064 µM	–	CC50 at 168 h [1]: 0.028 µM
O=C(N[C@@H](Cc1ccccc1)[C@H](O)CN(C1CCCCC1)S(=O)(=O)c1ccccc1)OCc1ccccc1 [Example 5]	0.088 µM	–	CC50 at 168 h [1]: 0.011 µM
COCCCN(C[C@@H](O)[C@H](Cc1ccccc1)NC(=O)OCc1ccccc1)S(=O)(=O)c1ccccc1 [Example 9]	0.398 µM	–	CC50 at 168 h [1]: 0.015 µM
CSCCCN(C[C@@H](O)[C@H](Cc1ccccc1)NC(=O)OCc1ccccc1)S(=O)(=O)c1ccccc1 [Example 10]	0.7 µM	–	CC50 at 168 h [1]: 0.012 µM
CC(C)CCN(C[C@@H](O)[C@H](Cc1ccccc1)NC(=O)[C@@H](NC(=O)CN(C)C)C(C)(C)C)S(=O)(=O)c1ccccc1 [Example 11]	0.011 µM	–	CC50 at 168 h [1]: 0.054 µM
CC(C)CCN(C[C@@H](O)[C@H](Cc1ccccc1)NC(=O)[C@H](Cc1cnc[nH]1)NC(=O)c1ccc2ccccc2n1)S(=O)(=O)c1ccccc1 [Example 12]	0.012 µM	–	CC50 at 168 h [1]: 0.0075 µM
CCC(C)[C@H](NC(=O)CN(C)C)C(=O)N[C@@H](Cc1ccccc1)[C@H](O)CN(CC(C)C)S(=O)(=O)c1ccc(OC)cc1 (some centres unmarked) [Example 13]	< 0.016 µM	–	–
CCC(C)[C@H](NC(=O)CNC)C(=O)N[C@@H](Cc1ccccc1)[C@H](O)CN(CCC(C)C)S(=O)(=O)c1ccccc1 (some centres unmarked) [Example 15]	0.038 µM	–	–
CC(C)CN(C[C@@H](O)[C@H](Cc1ccccc1)NC(=O)OCc1cccnc1)S(=O)(=O)c1ccccc1 [Example 16]	0.08 µM	–	CC50 at 168 h [1]: 62 µM
CC(C)CN(C[C@@H](O)[C@H](Cc1ccccc1)NC(=O)OCc1cccnc1)S(=O)(=O)c1ccc(Cl)cc1 [Example 18]	0.154 µM	–	–
CC(C)CN(C[C@@H](O)[C@H](Cc1ccccc1)NC(=O)OCc1cccnc1)S(=O)(=O)c1ccc([N+](=O)[O-])cc1 [Example 19]	–	0.377 µM	–
CC(C)CN(C[C@@H](O)[C@H](Cc1ccccc1)NC(=O)OCc1cccnc1)S(=O)(=O)c1ccc(O)cc1 [Example 20]	–	0.013 µM	–
COc1ccc(S(=O)(=O)N(CC(C)C)C[C@@H](O)[C@H](Cc2ccccc2)NC(=O)OCc2cncnc2)cc1 [Example 23]	–	0.008 µM	–
COc1ccc(S(=O)(=O)N(CC(C)C)C[C@@H](O)[C@H](Cc2ccccc2)NC(=O)c2ccncc2)cc1 [Example 33]	0.068 µM	–	–
COc1ccc(S(=O)(=O)N(CC(C)C)C[C@@H](O)[C@H](Cc2ccccc2)NC(=O)c2cccnc2)cc1 [Example 34]	0.188 µM	–	–
COc1ccc(S(=O)(=O)N(CC(C)C)C[C@@H](O)[C@H](Cc2ccccc2)NC(=O)c2cccc(N(C)C)c2C)cc1 [Example 36]	–	0.898 µM	–
Cc1ccccc1C(=O)N[C@@H](Cc1ccccc1)[C@H](O)CN(CC(C)C)S(=O)(=O)c1ccc(O)cc1 [Example 37]	–	< 0.02 µM	–
COc1ccc(S(=O)(=O)N(CC(C)C)C[C@@H](O)[C@H](Cc2ccccc2)NC(=O)OCc2ccc(N)nc2)cc1 [Example 38]	–	1.1 µM	–
COc1ccc(S(=O)(=O)N(CC(C)C)C[C@@H](O)[C@H](Cc2ccccc2)NC(=O)OCc2ccc(O)nc2)cc1 [Example 39]	–	0.269 µM	–
CC(C)CN(C[C@@H](O)[C@H](Cc1ccccc1)NC(=O)OCc1cncnc1)S(=O)(=O)c1ccc(O)cc1 [Example 41]	0.011 µM	–	–
CC(C)CN(C[C@@H](O)[C@H](Cc1ccccc1)NC(=O)O[C@H]1CCSC1)S(=O)(=O)c1ccc(O)cc1 [Example 42]	–	< 0.02 µM	–
CC(C)CN(C[C@@H](O)[C@H](Cc1ccccc1)NC(=O)O[C@H]1CCS(=O)(=O)C1)S(=O)(=O)c1ccc(O)cc1 [Example 43]	–	0.063 µM	–
COc1ccc(S(=O)(=O)N(CC(C)C)C[C@@H](O)[C@H](Cc2ccccc2)NC(=O)O[C@H]2CCOC2)cc1 [Example 44]	–	0.008 µM	–
CC(C)CN(C[C@@H](O)[C@H](Cc1ccccc1)NC(=O)O[C@H]1CCOC1)S(=O)(=O)c1ccc(O)cc1 [Example 45]	0.005 µM	–	–
COc1ccc(S(=O)(=O)N(CC(C)C)C[C@@H](O)[C@H](Cc2ccccc2)NC(=O)O[C@H]2CCSC2)cc1 [Example 46]	–	< 0.02 µM	–

Compound	EC50 (HIV-1 in CEM cells)	EC50 (HIV-1 in CEM cells; [2])	also measured
COc1ccc(S(=O)(=O)N(CC(C)C)C[C@@H](O)[C@H](Cc2ccccc2)NC(=O)c2cccc([N+](=O)[O-])c2C)cc1 [Example 48]	–	0.21 µM	–
COc1ccc(S(=O)(=O)N(CC(C)C)C[C@@H](O)[C@H](Cc2ccccc2)NC(=O)c2cccc(N)c2C)cc1 [Example 49]	–	< 0.02 µM	IC50 (HIV protease; [3]): 0.006 µM
COc1ccc(S(=O)(=O)N(CC(C)C)C[C@@H](O)[C@H](Cc2ccccc2)NC(=O)c2ccc(N)cc2C)cc1 [Example 51]	–	< 0.02 µM	IC50 (HIV protease; [3]): 0.009 µM
COc1ccc(S(=O)(=O)N(CC(C)C)C[C@@H](O)[C@H](Cc2ccccc2)NC(=O)c2ccc(N(C)C)cc2C)cc1 [Example 52]	–	–	IC50 (HIV protease; [3]): > 0.1 µM
COc1ccc(S(=O)(=O)N(CC(C)C)C[C@@H](O)[C@H](Cc2ccccc2)NC(=O)c2cc(N)ccc2C)cc1 [Example 54]	–	–	IC50 (HIV protease; [3]): 0.01 µM
COc1ccc(S(=O)(=O)N(CC(C)C)C[C@@H](O)[C@H](Cc2ccccc2)NC(=O)OCc2cncs2)cc1 [Example 56]	–	0.04 µM	–
CC(C)CN(C[C@@H](O)[C@H](Cc1ccccc1)NC(=O)OCc1cncs1)S(=O)(=O)c1ccc(O)cc1 [Example 57]	–	< 0.02 µM	–
COc1ccc(S(=O)(=O)N(CC(C)C)C[C@@H](O)[C@H](Cc2ccccc2)NC(=O)OCc2ccoc2)cc1 [Example 58]	–	0.07 µM	–
COc1ccc(S(=O)(=O)N(CC(C)C)C[C@@H](O)[C@H](Cc2ccccc2)NC(=O)c2cccc(O)c2C)cc1 [Example 59]	–	0.022 µM	IC50 (HIV protease; [3]): 0.003 µM
CC(C)CN(C[C@@H](O)[C@H](Cc1ccccc1)NC(=O)OCc1ccoc1)S(=O)(=O)c1ccc(N)cc1 [Example 60]	–	0.06 µM	–
CC(C)CN(C[C@@H](O)[C@H](Cc1ccccc1)NC(=O)OCc1cccnc1)S(=O)(=O)c1ccc2c(c1)OCO2 [Example 69]	0.068 µM	–	–
CC(C)CN(C[C@@H](O)[C@H](Cc1ccccc1)NC(=O)OCc1cncs1)S(=O)(=O)c1ccc2c(c1)OCO2 [Example 70]	–	0.03 µM	–
Cc1c(O)cccc1C(=O)N[C@@H](Cc1ccccc1)[C@H](O)CN(CC(C)C)S(=O)(=O)c1ccc2c(c1)OCO2 [Example 73]	–	0.022 µM	–
CC(C)CCN(C[C@@H](O)[C@H](Cc1ccccc1)NC(=O)C(NC(=O)OCc1ccccc1)C(C)(C)C)S(C)(=O)=O (some centres unmarked) [Table 3 Entry 1]	–	–	IC50 (HIV protease; [4]): 0.081 µM
CNCC(=O)NC(C(=O)N[C@@H](Cc1ccccc1)[C@H](O)CN(CCC(C)C)S(=O)(=O)c1ccccc1)C(C)(C)C (some centres unmarked) [Table 3 Entry 6]	–	–	IC50 (HIV protease; [4]): 0.0018 µM
CC(C)CCN(C[C@@H](O)[C@H](Cc1ccccc1)NC(=O)C(NC(=O)CN(C)C)C(C)(C)C)S(=O)(=O)c1ccccc1 (some centres unmarked) [Table 3 Entry 8]	–	–	IC50 (HIV protease; [4]): 0.003 µM
COc1ccc(S(=O)(=O)N(CC(C)C)C[C@@H](O)[C@H](Cc2ccccc2)NC(=O)C(NC(=O)CN(C)C)C(C)(C)C)cc1 (some centres unmarked) [Table 3 Entry 10]	–	–	IC50 (HIV protease; [4]): 0.0025 µM
COc1ccc(S(=O)(=O)N(CC(C)C)C[C@@H](O)[C@H](Cc2ccccc2)NC(=O)C2CCc3ccccc3C2)cc1 (some centres unmarked) [Table 5A Entry 4]	–	–	IC50 (HIV protease): 0.01 µM
COc1ccc(S(=O)(=O)N(CC(C)C)C[C@@H](O)[C@H](Cc2ccccc2)NC(=O)c2ccc(C)cc2C)cc1 [Table 5A Entry 6]	–	–	IC50 (HIV protease): 0.023 µM
COc1ccc(S(=O)(=O)N(CC(C)C)CC(O)C(Cc2ccccc2)NC(=O)c2cccnc2)cc1 (centres unmarked) [Table 5A Entry 9]	–	–	IC50 (HIV protease; [5]): 0.067 µM
COc1ccc(S(=O)(=O)N(CC(C)C)CC(O)C(Cc2ccccc2)NC(=O)c2ccncc2)cc1 (centres unmarked) [Table 5A Entry 11]	–	–	IC50 (HIV protease; [5]): 0.018 µM
COc1ccc(S(=O)(=O)N(CC(C)C)CC(O)C(Cc2ccccc2)NC(=O)c2ccccc2Cl)cc1 (centres unmarked) [Table 5A Entry 12]	–	–	IC50 (HIV protease; [5]): 0.006 µM
COc1ccc(S(=O)(=O)N(CC(C)C)CC(O)C(Cc2ccccc2)NC(=O)c2ccccc2C(C)C)cc1 (centres unmarked) [Table 5A Entry 14]	–	–	IC50 (HIV protease; [5]): 0.049 µM
COc1ccc(S(=O)(=O)N(CC(C)C)CC(O)C(Cc2ccccc2)NC(=O)c2ccccc2)cc1 (centres unmarked) [Table 5A Entry 25]	–	–	IC50 (HIV protease; [5]): 0.014 µM
COc1ccc(S(=O)(=O)N(CC(C)C)CC(O)C(Cc2ccccc2)NC(=O)c2ccc(C)cc2)cc1 (centres unmarked) [Table 5A Entry 28]	–	–	IC50 (HIV protease; [5]): 0.015 µM
COc1ccc(S(=O)(=O)N(CC(C)C)C[C@@H](O)[C@H](Cc2ccccc2)NC(=O)c2ccccc2OC)cc1 [Table 5A Entry 29]	–	–	IC50 (HIV protease; [5]): 0.19 µM
COc1ccc(S(=O)(=O)N(CC(C)C)C[C@@H](O)[C@H](Cc2ccccc2)NC(=O)c2cccc(OC)c2)cc1 [Table 5A Entry 30]	–	–	IC50 (HIV protease): 0.03 µM
